Assay results: ChEMBL document CHEMBL1201862, “PubChem BioAssay data set” (2004)
The source made the active and inactive calls.

Columns and labels:
[1] = NIH-3T3 fibroblast cytotoxicity, dose response, cytotoxicity control, cell-based, fluorescence, Alamar Blue, secondary assay (AID 2327); assay type: functional;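 also: NIH-3T3 mouse fibroblasts cultured with fluconazole at 8 µg/mL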
[2] = C. albicans growth with fluconazole, confirmation, fluorescence, retest (AID 2467); assay type: functional, cell-based
[3] = molecular target: T1, Serine/threonine-protein phosphatase (Candida dubliniensis (strain CD36 / CBS 7987 / NCPF 3949 / NRRLY-17841) (Yeast), UniProt B9W6M3); experiment: calcineurin pathway inhibitors in yeast reporter, dose response, S. cerevisiae, CDRE-lacZ, luminescence, secondary (AID 2388); assay type: functional, cell-based;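 also: yeast reporter cells carrying a calcineurin-responsive lacZ construct stimulated with calcium chloride; luminescent beta-galactosidase reporter signal in whole cells rather than isolated phosphatase activity; potency for inhibition where a drop in reporter signal means calcineurin blockade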
T1 sequence (B9W6M3 whole entry): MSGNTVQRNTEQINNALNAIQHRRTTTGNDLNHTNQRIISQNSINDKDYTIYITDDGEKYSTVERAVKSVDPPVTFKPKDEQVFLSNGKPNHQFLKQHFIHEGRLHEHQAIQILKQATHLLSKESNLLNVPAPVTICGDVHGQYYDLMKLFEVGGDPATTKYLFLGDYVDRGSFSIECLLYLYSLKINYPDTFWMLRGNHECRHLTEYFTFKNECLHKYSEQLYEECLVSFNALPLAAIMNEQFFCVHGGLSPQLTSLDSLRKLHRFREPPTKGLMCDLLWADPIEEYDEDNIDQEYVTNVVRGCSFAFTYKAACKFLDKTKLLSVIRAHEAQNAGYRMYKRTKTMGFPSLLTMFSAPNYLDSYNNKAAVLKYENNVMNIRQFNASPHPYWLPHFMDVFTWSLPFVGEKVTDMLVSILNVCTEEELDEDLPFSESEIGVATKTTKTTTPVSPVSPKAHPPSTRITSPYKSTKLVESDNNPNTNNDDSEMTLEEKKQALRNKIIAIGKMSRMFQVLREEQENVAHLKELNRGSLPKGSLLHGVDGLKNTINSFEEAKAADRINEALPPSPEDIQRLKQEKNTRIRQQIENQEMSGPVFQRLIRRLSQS

[4] = molecular target: ATP-dependent molecular chaperone HSP82 (Candida albicans (strain WO-1) (Yeast), UniProt C4YTQ8); experiment: loss of DOC-induced GRE-beta-galactosidase reporter signal, dose response, Hsp90 inhibitor project, S. cerevisiae, luminescence (AID 2400); assay type: functional, cell-based;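 also: beta-galactosidase luminescence from glucocorticoid response element reporter as proxy for Hsp90 function; inhibitor potency where signal loss means Hsp90 inhibition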
Escherichia coli [5] = experiment: microbe, parasite or virus in culture
Escherichia coli [6] = experiment: microbe, parasite or virus in culture; remark: listed apart in the source
Leucine aminopeptidase = molecular target: T2, Leucine aminopeptidase (Plasmodium falciparum 3D7, UniProt Q8IL11); experiment: P. falciparum M17LAP inhibitors, primary screen, biochemical, fluorogenic H-Leu-NHMec substrate, 1536-well (AID 1619); assay type: functional
T2 sequence (Q8IL11 whole entry): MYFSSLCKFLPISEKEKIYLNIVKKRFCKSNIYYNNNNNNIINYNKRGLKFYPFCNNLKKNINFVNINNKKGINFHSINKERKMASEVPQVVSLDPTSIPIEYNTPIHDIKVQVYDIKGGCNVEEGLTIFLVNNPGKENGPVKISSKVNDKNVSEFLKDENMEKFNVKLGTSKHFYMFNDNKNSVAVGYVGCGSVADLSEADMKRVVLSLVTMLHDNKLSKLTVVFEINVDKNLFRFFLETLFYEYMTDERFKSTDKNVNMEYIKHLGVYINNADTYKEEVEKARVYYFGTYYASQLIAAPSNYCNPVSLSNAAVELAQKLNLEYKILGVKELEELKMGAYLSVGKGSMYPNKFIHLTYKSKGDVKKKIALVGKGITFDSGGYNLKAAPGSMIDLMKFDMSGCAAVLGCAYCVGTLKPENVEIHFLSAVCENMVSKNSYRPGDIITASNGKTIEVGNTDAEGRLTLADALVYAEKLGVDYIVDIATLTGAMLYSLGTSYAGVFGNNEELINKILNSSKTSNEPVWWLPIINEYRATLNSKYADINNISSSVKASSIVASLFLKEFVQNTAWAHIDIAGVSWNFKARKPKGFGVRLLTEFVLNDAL

[7] = molecular target: T3, Heat shock factor protein 1 (Mus musculus, UniProt P38532); experiment: inhibition of MG132-induced HSE-luciferase signal, confirmation, cell-based, NIH3T3, luminescence, dose retest (AID 2382); assay type: functional;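 also: NIH3T3 fibroblasts with HSF1-driven luciferase reporter stressed by proteasome inhibitor MG132; luminescence from HSF1-driven luciferase expression after 8 hours of MG132 stress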
T3 sequence (P38532 whole entry): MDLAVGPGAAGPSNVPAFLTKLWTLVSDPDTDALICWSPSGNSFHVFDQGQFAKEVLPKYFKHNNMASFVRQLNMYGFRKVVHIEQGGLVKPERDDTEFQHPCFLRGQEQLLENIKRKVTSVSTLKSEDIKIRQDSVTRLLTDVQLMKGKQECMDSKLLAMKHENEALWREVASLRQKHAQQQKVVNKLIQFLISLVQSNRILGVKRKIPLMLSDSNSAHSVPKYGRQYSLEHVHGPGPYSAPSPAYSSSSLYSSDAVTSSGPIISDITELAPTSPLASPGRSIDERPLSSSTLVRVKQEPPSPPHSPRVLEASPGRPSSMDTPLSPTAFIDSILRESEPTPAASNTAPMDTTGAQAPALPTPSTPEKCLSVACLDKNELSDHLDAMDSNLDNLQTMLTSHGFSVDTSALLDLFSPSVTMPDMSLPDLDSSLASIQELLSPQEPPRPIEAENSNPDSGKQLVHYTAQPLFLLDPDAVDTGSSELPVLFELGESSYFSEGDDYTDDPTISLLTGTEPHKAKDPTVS

[8] = molecular target: T4, Microphthalmia-associated transcription factor (Homo sapiens, UniProt O75030); experiment: TRPM1 promoter luciferase signal decrease, dose response, MITF inhibitor project, cell-based, SK-MEL-5, cherry-picked, set 3 (AID 493073); assay type: functional
T4 sequence (O75030 whole entry): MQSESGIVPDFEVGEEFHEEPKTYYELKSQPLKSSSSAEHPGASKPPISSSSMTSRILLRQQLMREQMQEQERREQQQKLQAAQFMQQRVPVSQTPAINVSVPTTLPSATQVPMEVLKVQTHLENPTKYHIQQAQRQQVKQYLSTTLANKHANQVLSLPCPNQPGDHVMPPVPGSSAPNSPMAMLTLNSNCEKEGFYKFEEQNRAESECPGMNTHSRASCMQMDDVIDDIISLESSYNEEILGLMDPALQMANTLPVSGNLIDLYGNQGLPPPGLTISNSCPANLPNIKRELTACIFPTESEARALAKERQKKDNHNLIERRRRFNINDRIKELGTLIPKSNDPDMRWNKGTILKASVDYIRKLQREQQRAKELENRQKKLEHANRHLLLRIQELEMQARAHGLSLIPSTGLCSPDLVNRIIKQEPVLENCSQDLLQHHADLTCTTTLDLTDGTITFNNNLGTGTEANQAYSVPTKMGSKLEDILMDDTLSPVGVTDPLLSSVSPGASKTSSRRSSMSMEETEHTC

[9] = molecular target: T5, Luciferin 4-monooxygenase (Photuris pensylvanica, UniProt Q27757); experiment: firefly luciferase enzyme inhibitors, dose response, counter-screen for HSF-1 reporter inhibitor project, biochemical, Cell Titer Glo, luminescence, cherry-picks (AID 588847)
T5 sequence (Q27757 whole entry): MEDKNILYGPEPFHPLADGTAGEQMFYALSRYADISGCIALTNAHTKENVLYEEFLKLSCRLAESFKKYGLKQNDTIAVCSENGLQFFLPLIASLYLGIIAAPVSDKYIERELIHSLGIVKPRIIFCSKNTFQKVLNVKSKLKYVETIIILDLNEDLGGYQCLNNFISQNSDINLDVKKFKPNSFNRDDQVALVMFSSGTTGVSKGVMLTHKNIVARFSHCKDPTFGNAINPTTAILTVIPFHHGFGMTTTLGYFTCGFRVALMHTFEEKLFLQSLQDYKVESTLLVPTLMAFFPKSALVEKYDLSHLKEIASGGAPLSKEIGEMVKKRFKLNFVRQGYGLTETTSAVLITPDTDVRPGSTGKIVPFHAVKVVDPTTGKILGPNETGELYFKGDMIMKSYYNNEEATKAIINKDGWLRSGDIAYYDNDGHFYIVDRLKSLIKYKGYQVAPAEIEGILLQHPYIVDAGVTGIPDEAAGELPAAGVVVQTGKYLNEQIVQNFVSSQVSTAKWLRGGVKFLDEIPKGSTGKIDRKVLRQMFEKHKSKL

[10] = molecular target: T6, Long-chain-fatty-acid--AMP ligase FadD28 (Mycobacterium tuberculosis, UniProt P9WQ59); experiment: Fluorescence polarization aasay to screen for inhibitors that compete for the binding of FadD28 to a bisubstrate Measured in Biochemical System Using Plate Reader - 2147-01_Inhibitor_Dose_CherryPick_Activity.; assay type: functional, Mycobacterium tuberculosis H37Rv
T6 sequence (P9WQ59 whole entry): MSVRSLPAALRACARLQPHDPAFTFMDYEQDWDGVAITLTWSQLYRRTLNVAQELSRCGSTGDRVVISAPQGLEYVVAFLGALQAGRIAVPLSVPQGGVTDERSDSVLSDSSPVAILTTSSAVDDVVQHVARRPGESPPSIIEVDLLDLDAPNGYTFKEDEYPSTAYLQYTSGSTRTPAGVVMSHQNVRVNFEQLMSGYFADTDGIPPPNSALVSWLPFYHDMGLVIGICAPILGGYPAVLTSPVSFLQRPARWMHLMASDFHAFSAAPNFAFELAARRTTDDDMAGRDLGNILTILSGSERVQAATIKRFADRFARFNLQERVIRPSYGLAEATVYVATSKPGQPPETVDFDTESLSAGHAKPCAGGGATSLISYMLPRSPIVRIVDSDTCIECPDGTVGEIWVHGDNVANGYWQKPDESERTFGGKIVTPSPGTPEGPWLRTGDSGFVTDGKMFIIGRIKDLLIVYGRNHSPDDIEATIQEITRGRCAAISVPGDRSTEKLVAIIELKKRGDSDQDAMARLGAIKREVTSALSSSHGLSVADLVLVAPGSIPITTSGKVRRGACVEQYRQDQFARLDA

[11] = molecular target: T7, Rac GTPase-activating protein 1 (Homo sapiens, UniProt Q9H0H5); experiment: MgcRacGAP GTPase-activating activity inhibitors, confirmation, biochemical, ADP Hunter fluorescence, primary and confirmatory (AID 624330); assay type: functional
T7 sequence (Q9H0H5 whole entry): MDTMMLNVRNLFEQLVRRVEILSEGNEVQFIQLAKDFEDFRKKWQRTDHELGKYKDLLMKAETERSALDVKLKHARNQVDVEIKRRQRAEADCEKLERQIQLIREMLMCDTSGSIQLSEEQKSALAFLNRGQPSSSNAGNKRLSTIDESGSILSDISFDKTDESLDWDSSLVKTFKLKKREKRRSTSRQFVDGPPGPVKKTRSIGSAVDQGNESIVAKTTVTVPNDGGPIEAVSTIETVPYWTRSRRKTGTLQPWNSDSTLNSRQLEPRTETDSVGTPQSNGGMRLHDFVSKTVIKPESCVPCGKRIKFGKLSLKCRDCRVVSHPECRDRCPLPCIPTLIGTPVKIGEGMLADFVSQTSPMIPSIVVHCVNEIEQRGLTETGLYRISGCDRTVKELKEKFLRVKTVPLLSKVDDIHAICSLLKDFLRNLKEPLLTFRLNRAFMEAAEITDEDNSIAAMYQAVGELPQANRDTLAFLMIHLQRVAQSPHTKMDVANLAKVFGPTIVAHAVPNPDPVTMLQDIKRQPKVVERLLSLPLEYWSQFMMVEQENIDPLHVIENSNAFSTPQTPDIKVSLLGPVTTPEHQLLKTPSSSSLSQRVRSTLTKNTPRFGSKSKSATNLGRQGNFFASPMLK

Sequence of ATP-dependent molecular chaperone HSP82 (C4YTQ8 whole entry): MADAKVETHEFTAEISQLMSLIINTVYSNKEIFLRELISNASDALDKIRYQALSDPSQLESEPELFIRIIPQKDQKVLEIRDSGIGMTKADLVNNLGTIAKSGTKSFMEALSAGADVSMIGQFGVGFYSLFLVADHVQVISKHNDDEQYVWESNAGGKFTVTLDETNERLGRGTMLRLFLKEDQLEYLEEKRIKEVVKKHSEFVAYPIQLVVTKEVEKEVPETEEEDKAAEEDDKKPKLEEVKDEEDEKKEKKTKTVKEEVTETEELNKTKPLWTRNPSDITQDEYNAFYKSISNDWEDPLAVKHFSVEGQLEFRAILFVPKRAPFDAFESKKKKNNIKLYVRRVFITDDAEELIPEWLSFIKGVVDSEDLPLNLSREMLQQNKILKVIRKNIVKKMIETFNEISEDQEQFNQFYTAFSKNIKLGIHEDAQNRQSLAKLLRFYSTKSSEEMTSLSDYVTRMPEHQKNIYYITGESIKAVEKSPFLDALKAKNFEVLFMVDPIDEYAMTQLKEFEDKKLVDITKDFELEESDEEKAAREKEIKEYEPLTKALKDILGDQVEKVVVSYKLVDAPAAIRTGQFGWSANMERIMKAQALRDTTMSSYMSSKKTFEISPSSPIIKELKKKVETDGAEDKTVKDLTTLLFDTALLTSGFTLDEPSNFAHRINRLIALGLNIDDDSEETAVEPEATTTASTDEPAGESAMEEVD

Question: For `N=C(Cc1ccccc1)NOC(=O)c1cccc2ccccc12`, which EC50 [1] is on record?
Answer: The EC50 was 19.3 µM (active).

Question: And the EC50 [2]?
Answer: The EC50 was 0.717 µM (active).

Question: And the EC50 [3]?
Answer: Its EC50 is > 180 µM (inactive).

Question: And the EC50 [4]?
Answer: Its EC50 is 14 µM (active).

Question: What does the source list for `Cc1ccc(CNC(=O)COC(=O)c2cccnc2Cl)cc1`?
Answer: AC50 (Escherichia coli [5]): 29.3 µM (active); AC50 (Escherichia coli [6]): 73.1 µM (active)

Question: For `CC(C)(C)OC(=O)NCCCCCNC(=O)c1[nH]cnc1C(=O)NC1CCN(C(=O)OC(C)(C)C)CC1`, which AC50 (Escherichia coli [6]) is on record?
Answer: The AC50 was 235 µM (active).

Question: With `Cc1ccc(/C=N/Nc2ccc(C(=O)O)cc2)s1` as the compound, how does the IC50 (Leucine aminopeptidase) read?
Answer: Its IC50 is 20.4 µM (active).

Question: What about the EC50 [7] of the same compound?
Answer: The EC50 was < 0.16 µM (active).

Question: What about the AC50 [8] of the same compound?
Answer: Its AC50 is 3.3 µM (active).

Question: What about the AC50 [9] of the same compound?
Answer: The AC50 was 0.721 µM (active).

Question: What about the AC50 [10] of the same compound?
Answer: Its AC50 is 37.8 µM (active).

Question: What about the IC50 [11] of the same compound?
Answer: Its IC50 is 89.2 µM (active).

Question: For `c1coc(CN2CNc3nc4ccccc4n3C2)c1`, which AC50 (Escherichia coli [5]) is on record?
Answer: Its AC50 is 79.4 µM (active).

Question: And the AC50 (Escherichia coli [6])?
Answer: The AC50 was 101 µM (active).

Question: For `CCC(=O)O[C@]1(C(=O)CCl)[C@@H](C)C[C@H]2[C@@H]3CCC4=CC(=O)C=C[C@]4(C)[C@@]3(F)[C@@H](O)C[C@@]21C` [CLOBETASOL PROPIONATE], which AC50 [9] is on record?
Answer: Its AC50 is > 52 µM (inactive).
